Some test systems named below: KM12; DU-145; 786-0; SK-MEL-2; A498; MCF7; OVCAR-8; MDA-MB-435; MDA-MB-231; NCI-H226; HOP-62; COLO 205; LOX IMVI; Hs-578T; SF-268; ACHN; U-251; NCI-H460; NCI-H23; UACC-62.
Assay in all cases: NCI-60 cell line screen, 48 h

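How tested: cells in 96-well plates exposed to compound for 48 hours at five concentrations. GI50 marks 50% less growth.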 Activity calls are given as the source filed them. No stated cut-off is given here; in the data, active = GI50 up to about 1.1 µM and inactive = higher.

Take `OCC(O)C(O)C(O)C(/C=N\Nc1ncnc2ccc(Br)cc12)=N/Nc1ncnc2ccc(Br)cc12` (stereo unspecified): the GI50 in the test on KM12 was 17.2 µM (inactive); in the test on DU-145 it was 5.65 µM (inactive); with 786-0 it was 5.47 µM (inactive); with SK-MEL-2, 3.33 µM (inactive); in the test on A498 it was 50.5 µM (inactive); with MCF7, 34.4 µM (inactive). The GI50 in the test on OVCAR-8 was 4.01 µM (inactive); in the test with MDA-MB-435, 12.9 µM (inactive); in the test with MDA-MB-231, 2.87 µM (inactive); with NCI-H226, 5.58 µM (inactive); in the test with HOP-62, 7.16 µM (inactive); in the test with COLO 205 it was 3.31 µM (inactive). For the same compound, the GI50 was 5.12 µM (inactive) in the test on LOX IMVI; > 100 µM (inactive) in the test with Hs-578T; 0.423 µM (active) in the test on SF-268; 5.24 µM (inactive) in the test with ACHN; 3.34 µM (inactive) in the test with U-251.
Consider `CN(C)c1ccc(/C=C/c2ccc3ccccc3[n+]2C)cc1`, for which the GI50 in the test on KM12 is 3.42 µM (inactive); in the test with NCI-H460 it was 3.64 µM (inactive); in the test on NCI-H23, 1.48 µM (inactive); with UACC-62 it was 3.62 µM (inactive); with DU-145, 1.67 µM (inactive); in the test on 786-0 it was 6.76 µM (inactive). Besides, the GI50 with SK-MEL-2 was 1.48 µM (inactive); in the test with A498, 20.1 µM (inactive); in the test with MCF7, 1.64 µM (inactive); in the test with OVCAR-8 it was 1.39 µM (inactive); with MDA-MB-435, 4.21 µM (inactive); in the test on MDA-MB-231, 3.28 µM (inactive). For the same compound, the GI50 with NCI-H226 is 3.13 µM (inactive); in the test with HOP-62, 7.13 µM (inactive); with Hs-578T, 20.4 µM (inactive); in the test on SF-268, 4.45 µM (inactive); with ACHN, 5.62 µM (inactive); in the test on U-251, 2.38 µM (inactive).
Turning to `CCOC(=O)C1c2[nH]c3ccccc3c2CCN1C(=O)c1ccc(OC)o1` (stereo unspecified), the GI50 with KM12, in the test on NCI-H460, in the test on NCI-H23, in the test with DU-145, with 786-0 and with SK-MEL-2 was > 10 µM (inactive) in each case. Moreover, the GI50 in the test on A498, in the test with MCF7, in the test with OVCAR-8, in the test with MDA-MB-435, in the test with MDA-MB-231 and with NCI-H226 was > 10 µM (inactive) each time. Besides, the GI50 in the test with HOP-62, with COLO 205, with LOX IMVI, in the test with Hs-578T, in the test with SF-268 and in the test with ACHN was > 10 µM (inactive) each time. In addition, in the test with U-251, the GI50 was > 10 µM (inactive).
Take `Cc1ccc(C2=Nc3cccc4cccc(c34)N2)cc1`: the GI50 in the test on KM12, in the test with NCI-H460, in the test with NCI-H23, with UACC-62, in the test with DU-145 and with 786-0 was > 100 µM (inactive) throughout. For the same compound, the GI50 in the test on SK-MEL-2, in the test with MCF7, in the test with OVCAR-8, with MDA-MB-435, in the test on MDA-MB-231 and with NCI-H226 was > 100 µM (inactive) each time. The GI50 in the test on HOP-62, in the test on COLO 205, with LOX IMVI, in the test with Hs-578T, with SF-268 and in the test with ACHN was > 100 µM (inactive) each time. Also, the GI50 in the test with U-251 is > 100 µM (inactive).
For `CC1=C[P+](c2ccccc2)(c2ccccc2)c2ccccc2O1`, the GI50 is 2.07 µM (inactive) in the test on KM12; 20.5 µM (inactive) in the test with NCI-H460; 4.07 µM (inactive) in the test with NCI-H23; 8 µM (inactive) in the test on UACC-62; 19.2 µM (inactive) in the test on DU-145; 25.2 µM (inactive) in the test on 786-0. The GI50 with SK-MEL-2 was 4.17 µM (inactive); in the test on MCF7, 5.05 µM (inactive); in the test with OVCAR-8, 5.14 µM (inactive); in the test on MDA-MB-435, 2.47 µM (inactive); in the test with MDA-MB-231, 3.96 µM (inactive); in the test on NCI-H226, 15.2 µM (inactive). Besides, the GI50 was 11.6 µM (inactive) in the test on HOP-62; 1.29 µM (inactive) with COLO 205; 4.45 µM (inactive) in the test with LOX IMVI; 2.53 µM (inactive) in the test with Hs-578T; 16.6 µM (inactive) in the test with SF-268; 30.6 µM (inactive) in the test on ACHN. Besides, in the test with U-251, the GI50 was 3.65 µM (inactive).
In the case of `COc1c(O)cc(O)c2c(=O)cc(-c3ccccc3)oc12` [WOGONIN], the GI50 was 34 µM (inactive) with KM12; 26.2 µM (inactive) in the test on NCI-H460; 42.6 µM (inactive) with NCI-H23; 35.1 µM (inactive) with UACC-62; 23.6 µM (inactive) in the test with DU-145; 51.9 µM (inactive) in the test on 786-0. Further, the GI50 was 43.7 µM (inactive) in the test with SK-MEL-2; 35.6 µM (inactive) with MCF7; 52.4 µM (inactive) in the test with OVCAR-8; 65.5 µM (inactive) with MDA-MB-435; > 100 µM (inactive) in the test on MDA-MB-231; 40.9 µM (inactive) in the test on NCI-H226. Moreover, the GI50 is 21.7 µM (inactive) in the test with HOP-62; 64.3 µM (inactive) in the test with COLO 205; 22.4 µM (inactive) with LOX IMVI; 18.7 µM (inactive) in the test on Hs-578T; 37.9 µM (inactive) in the test on SF-268; 31.4 µM (inactive) in the test with ACHN. For the same compound, the GI50 in the test with U-251 was 63.2 µM (inactive).
For `C/C=C1\CC(C(=O)OCC)CCCCCCC1=O` (stereo unspecified), the GI50 with KM12 is > 100 µM (inactive); with NCI-H23, > 100 µM (inactive); with UACC-62, 59.2 µM (inactive); in the test on DU-145, > 100 µM (inactive); with 786-0, > 100 µM (inactive); with SK-MEL-2 it was > 100 µM (inactive). Besides, the GI50 in the test with A498, in the test with MCF7, in the test with OVCAR-8, with MDA-MB-435, in the test on MDA-MB-231 and in the test on NCI-H226 was > 100 µM (inactive) in each case. Further, the GI50 in the test with HOP-62, in the test with COLO 205, with LOX IMVI, in the test on Hs-578T, in the test on SF-268 and with ACHN was > 100 µM (inactive) each time. For the same compound, the GI50 in the test with U-251 is > 100 µM (inactive).
Take `COc1ccccc1CNCCCCCNCCCCCCCCCCNCCCCCNCc1ccccc1OC`: the GI50 in the test with KM12 is 4.54 µM (inactive); in the test with NCI-H460, 13.8 µM (inactive); in the test on NCI-H23 it was 42.2 µM (inactive); in the test on UACC-62, 36.6 µM (inactive); in the test with DU-145, 18 µM (inactive); with 786-0 it was 23.9 µM (inactive). Besides, the GI50 in the test with SK-MEL-2 was 18.4 µM (inactive); in the test with MCF7, 18 µM (inactive); in the test on OVCAR-8, 25.6 µM (inactive); with MDA-MB-435, 57.4 µM (inactive); in the test on MDA-MB-231, 16.2 µM (inactive); with NCI-H226 it was 18.1 µM (inactive). Further, the GI50 was 16 µM (inactive) in the test on HOP-62; 34.3 µM (inactive) in the test with COLO 205; 16.7 µM (inactive) with LOX IMVI; 1.05 µM (active) with Hs-578T; 39.4 µM (inactive) in the test with SF-268; > 100 µM (inactive) in the test on ACHN. For the same compound, the GI50 in the test with U-251 was 18.9 µM (inactive).
For `COc1ccc(C(C#N)NCCCCCCNC(C#N)c2ccc(OC)cc2)cc1` (stereo unspecified), the GI50 in the test on KM12, in the test on NCI-H23, in the test with UACC-62, in the test on DU-145, with 786-0 and with SK-MEL-2 was > 100 µM (inactive) throughout. Also, the GI50 in the test on A498, in the test on MCF7, in the test with OVCAR-8, in the test with MDA-MB-435, in the test with MDA-MB-231 and in the test on NCI-H226 was > 100 µM (inactive) in each case. The GI50 in the test with HOP-62, in the test on COLO 205, in the test with LOX IMVI, in the test on Hs-578T, in the test with SF-268 and in the test with ACHN was > 100 µM (inactive) in each case. Moreover, the GI50 with U-251 is > 100 µM (inactive).
On to `C[N+](C)(CCNC(=O)c1cccc2cc3ccccc3nc12)Cc1ccc([N+](=O)[O-])s1`, for which the GI50 in the test on KM12, with NCI-H23, in the test on UACC-62, in the test with DU-145, with 786-0 and with SK-MEL-2 was > 25 µM (inactive) throughout. The GI50 in the test with A498, in the test with MCF7, in the test with OVCAR-8, in the test with MDA-MB-435, in the test on MDA-MB-231 and in the test with NCI-H226 was > 25 µM (inactive) in each case. The GI50 in the test on HOP-62, in the test on COLO 205, in the test with LOX IMVI, with Hs-578T, with SF-268 and with ACHN was > 25 µM (inactive) in each case. In addition, the GI50 in the test with U-251 is > 25 µM (inactive).
Consider `Clc1ccc(-c2nc(-c3ccc(Cl)cc3)[s+]s2)cc1`, for which the GI50 in the test on KM12 is 42.1 µM (inactive); in the test with NCI-H460 it was 37.6 µM (inactive); in the test on NCI-H23 it was 78 µM (inactive); in the test with UACC-62, 52.2 µM (inactive); in the test on DU-145, > 100 µM (inactive); with 786-0, 38 µM (inactive). Moreover, the GI50 in the test on SK-MEL-2 is > 100 µM (inactive); with A498 it was > 100 µM (inactive); in the test with MCF7 it was 37.3 µM (inactive); with OVCAR-8 it was 39.8 µM (inactive); in the test on MDA-MB-435, 74.1 µM (inactive); in the test with MDA-MB-231, 46.9 µM (inactive). The GI50 in the test with HOP-62 is 34 µM (inactive); with COLO 205, > 100 µM (inactive); with LOX IMVI it was 33.1 µM (inactive); with Hs-578T, 46.7 µM (inactive); in the test on SF-268 it was 37.2 µM (inactive); with ACHN, 38.6 µM (inactive). Further, in the test with U-251, the GI50 was 30.4 µM (inactive).

(Values after ChEMBL document CHEMBL1201862, “PubChem BioAssay data set” (2004).)
